Experimental data: PubChem BioAssay AID1963825 (Molecular Pharmacology Branch, DTP, NCI, 2024)

Experiment: Anticancer human tumor 997537-175-T-J1-PDC patient-derived colon adenocarcinoma cell line growth inhibition [POLQ]
Settings: 997537-175-T-J1-PDC complex spheroid viability, combination with POLQ inhibitors; for IC50: curve of first compound; for viability, T/C: stronger effect = lower value
How it was run: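 Growth inhibition in 3D: complex spheroids (tumor PDC, HUVEC, MSC) treated with POLQ inhibitor combinations; where Cmax unknown, highest tested concentration 10 microM, except SN-38 at 1 microM.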

[1] = second compound 0.0316 µM, first compound 0.0316 µM
[2] = second compound 0.0316 µM, first compound 0.1 µM
[3] = second compound 0.1 µM, first compound 0.0316 µM
[4] = second compound 0.1 µM, first compound 0.1 µM
[5] = second compound 0.316 µM, first compound 0.0316 µM
[6] = second compound 0.316 µM, first compound 0.1 µM
[7] = second compound 1 µM, first compound 0.0316 µM
[8] = second compound 1 µM, first compound 0.1 µM
[9] = second compound 3.16 µM, first compound 0.0316 µM
[10] = second compound 3.16 µM, first compound 0.1 µM
[11] = second compound 10 µM, first compound 0.0316 µM
[12] = second compound 10 µM, first compound 0.1 µM
[13] = second compound 0.0316 µM, first compound 0.316 µM
[14] = second compound 0.0316 µM, first compound 1 µM
[15] = second compound 0.0316 µM, first compound 3.16 µM
[16] = second compound 0.0316 µM, first compound 10 µM
[17] = second compound 0.1 µM, first compound 0.316 µM
[18] = second compound 0.1 µM, first compound 1 µM
[19] = second compound 0.1 µM, first compound 3.16 µM
[20] = second compound 0.1 µM, first compound 10 µM
[21] = second compound 0.316 µM, first compound 0.316 µM
[22] = second compound 0.316 µM, first compound 1 µM
[23] = second compound 0.316 µM, first compound 3.16 µM
[24] = second compound 0.316 µM, first compound 10 µM
[25] = second compound 1 µM, first compound 0.316 µM
[26] = second compound 1 µM, first compound 1 µM
[27] = second compound 1 µM, first compound 3.16 µM
[28] = second compound 1 µM, first compound 10 µM
[29] = second compound 3.16 µM, first compound 0.316 µM
[30] = second compound 3.16 µM, first compound 1 µM
[31] = second compound 3.16 µM, first compound 3.16 µM
[32] = second compound 3.16 µM, first compound 10 µM
[33] = second compound 10 µM, first compound 0.316 µM
[34] = second compound 10 µM, first compound 1 µM
[35] = second compound 10 µM, first compound 3.16 µM
[36] = second compound 10 µM, first compound 10 µM
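Note: luminescence signal used as a surrogate for viable cells; spheroids exposed to drugs for seven days before readout.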

Compound `CC[C@@]1(O)C(=O)OCc2c1cc1n(c2=O)Cc2cc3c(CN(C)C)c(O)ccc3nc2-1` + Cc1cccc(N(C)C(=O)C2C(O)CCN2c2nc(C)cc(C(F)(F)F)c2C#N)c1 has an IC50 (second compound 0.0316 µM) greater than 0.1 µM, an IC50 (second compound 0.1 µM) greater than 0.1 µM and an IC50 (second compound 0.316 µM) greater than 0.1 µM. The IC50 (second compound 1 µM) was greater than 0.1 µM, the IC50 (second compound 3.16 µM) was greater than 0.1 µM and the IC50 (second compound 10 µM) was greater than 0.1 µM. For the same compound, the viability, T/C (second compound 0.0316 µM, first compound 0.000316 µM) was 108%, the viability, T/C (second compound 0.0316 µM, first compound 0.001 µM) was 102% and the viability, T/C (second compound 0.0316 µM, first compound 0.00316 µM) was 102%. For the same compound, the viability, T/C (second compound 0.0316 µM, first compound 0.01 µM) was 83.1%, the viability, T/C [1] was 87.9% and the viability, T/C [2] was 71.3%. It also gave a viability, T/C (second compound 0.1 µM, first compound 0.000316 µM) of 94.9%, a viability, T/C (second compound 0.1 µM, first compound 0.001 µM) of 92.4% and a viability, T/C (second compound 0.1 µM, first compound 0.00316 µM) of 92.6%. For the same compound, the viability, T/C (second compound 0.1 µM, first compound 0.01 µM) was 105%, the viability, T/C [3] was 96.2% and the viability, T/C [4] was 64.3%. It also gave a viability, T/C (second compound 0.316 µM, first compound 0.000316 µM) of 90%, a viability, T/C (second compound 0.316 µM, first compound 0.001 µM) of 100% and a viability, T/C (second compound 0.316 µM, first compound 0.00316 µM) of 107%. For the same compound, the viability, T/C (second compound 0.316 µM, first compound 0.01 µM) was 95.1%, the viability, T/C [5] was 103% and the viability, T/C [6] was 73.7%. The viability, T/C (second compound 1 µM, first compound 0.000316 µM) was 108%, the viability, T/C (second compound 1 µM, first compound 0.001 µM) was 96.7% and the viability, T/C (second compound 1 µM, first compound 0.00316 µM) was 97.5%. The viability, T/C (second compound 1 µM, first compound 0.01 µM) was 111%, the viability, T/C [7] was 83.1% and the viability, T/C [8] was 66.7%. It also gave a viability, T/C (second compound 3.16 µM, first compound 0.000316 µM) of 113%, a viability, T/C (second compound 3.16 µM, first compound 0.001 µM) of 101% and a viability, T/C (second compound 3.16 µM, first compound 0.00316 µM) of 101%. It also gave a viability, T/C (second compound 3.16 µM, first compound 0.01 µM) of 89.3%, a viability, T/C [9] of 89.8% and a viability, T/C [10] of 72%. It also gave a viability, T/C (second compound 10 µM, first compound 0.000316 µM) of 98%, a viability, T/C (second compound 10 µM, first compound 0.001 µM) of 104% and a viability, T/C (second compound 10 µM, first compound 0.00316 µM) of 102%. The viability, T/C (second compound 10 µM, first compound 0.01 µM) was 97.3%, the viability, T/C [11] was 82.5% and the viability, T/C [12] was 68.9%.
`Nc1ccn(C2OC(CO)C(O)C2(F)F)c(=O)n1` (stereo unspecified) + Cc1cccc(N(C)C(=O)C2C(O)CCN2c2nc(C)cc(C(F)(F)F)c2C#N)c1 showed an IC50 (second compound 0.0316 µM) greater than 10 µM, an IC50 (second compound 0.1 µM) greater than 10 µM and an IC50 (second compound 0.316 µM) greater than 10 µM. It also gave an IC50 (second compound 1 µM) greater than 10 µM, an IC50 (second compound 3.16 µM) greater than 10 µM and an IC50 (second compound 10 µM) greater than 10 µM. For the same compound, the viability, T/C [1] was 96.2%, the viability, T/C [2] was 99.7% and the viability, T/C [13] was 91.8%. The viability, T/C [14] was 89.8%, the viability, T/C [15] was 57.8% and the viability, T/C [16] was 77%. For the same compound, the viability, T/C [3] was 106%, the viability, T/C [4] was 91.5% and the viability, T/C [17] was 85.1%. The viability, T/C [18] was 67.1%, the viability, T/C [19] was 90.5% and the viability, T/C [20] was 52.8%. It also gave a viability, T/C [5] of 91.4%, a viability, T/C [6] of 102% and a viability, T/C [21] of 79.3%. It also gave a viability, T/C [22] of 76.7%, a viability, T/C [23] of 80.4% and a viability, T/C [24] of 63.5%. For the same compound, the viability, T/C [7] was 91.8%, the viability, T/C [8] was 102% and the viability, T/C [25] was 73.7%. It also gave a viability, T/C [26] of 68.4%, a viability, T/C [27] of 66% and a viability, T/C [28] of 66.7%. It also gave a viability, T/C [9] of 95.3%, a viability, T/C [10] of 103% and a viability, T/C [29] of 90.4%. For the same compound, the viability, T/C [30] was 92.5%, the viability, T/C [31] was 86.1% and the viability, T/C [32] was 70.7%. For the same compound, the viability, T/C [11] was 94.8%, the viability, T/C [12] was 97.2% and the viability, T/C [33] was 96.6%. For the same compound, the viability, T/C [34] was 86.9%, the viability, T/C [35] was 47.2% and the viability, T/C [36] was 82%.
With `O=c1[nH]cc(F)c(=O)[nH]1` + Cc1cccc(N(C)C(=O)C2C(O)CCN2c2nc(C)cc(C(F)(F)F)c2C#N)c1 the IC50 (second compound 0.0316 µM) was greater than 10 µM, the IC50 (second compound 0.1 µM) was greater than 10 µM and the IC50 (second compound 0.316 µM) was greater than 10 µM. It also gave an IC50 (second compound 1 µM) greater than 10 µM, an IC50 (second compound 3.16 µM) greater than 10 µM and an IC50 (second compound 10 µM) greater than 10 µM. The viability, T/C [1] was 84.2%, the viability, T/C [2] was 109% and the viability, T/C [13] was 95.8%. For the same compound, the viability, T/C [14] was 96.7%, the viability, T/C [15] was 94.6% and the viability, T/C [16] was 79.7%. For the same compound, the viability, T/C [3] was 95.8%, the viability, T/C [4] was 87.7% and the viability, T/C [17] was 103%. For the same compound, the viability, T/C [18] was 108%, the viability, T/C [19] was 103% and the viability, T/C [20] was 98.4%. For the same compound, the viability, T/C [5] was 95%, the viability, T/C [6] was 96% and the viability, T/C [21] was 112%. The viability, T/C [22] was 98.4%, the viability, T/C [23] was 94.9% and the viability, T/C [24] was 83.3%. The viability, T/C [7] was 104%, the viability, T/C [8] was 82.8% and the viability, T/C [25] was 94.7%. It also gave a viability, T/C [26] of 87.5%, a viability, T/C [27] of 87.3% and a viability, T/C [28] of 91.5%. It also gave a viability, T/C [9] of 95%, a viability, T/C [10] of 99% and a viability, T/C [29] of 98.8%. The viability, T/C [30] was 87.8%, the viability, T/C [31] was 95.3% and the viability, T/C [32] was 79.6%. The viability, T/C [11] was 93.1%, the viability, T/C [12] was 96.4% and the viability, T/C [33] was 103%. For the same compound, the viability, T/C [34] was 95.1%, the viability, T/C [35] was 89.8% and the viability, T/C [36] was 71.8%.
